# Laboratory results reported in paper PMC10766536 (The Journal of Antibiotics, 2023).
# Like-named read-outs stand apart in the source and are kept apart here.
# What was measured:
# [1] = molecular target: T1, MDCK-MDR1: overexpression of Pgp (Homo sapiens, UniProt P08183); assay: MDCK-MDR1 permeability and efflux
# [2] = system: Salmonella typhimurium AR-0031; assay: S. typhimurium broth killing (growth inhibition) assay; conditions: Salmonella typhimurium AR-0031, TSB, 24 h
# Excerpt: (§2) To test the potency of rifamycin analogs of the disclosure in vitro, a broth growth inhibition assay was developed.
# [3] = system: Salmonella typhimurium ATCC 14028; assay: S. typhimurium intracellular killing assay in THP-1 macrophages; format: cell-based; conditions: Salmonella typhimurium ATCC 14028 in THP-1 macrophages, top conc. 1e−4 M
# Procedure: (§1) THP-1 monocytic cell line (American Type Culture Collection) was grown in media (RPMI + 10% FBS + 1% Penicillin/Streptomycin), then seeded at a density of 1e5 cells/well in a 96 well plate and differentiated into macrophages for 3 days prior to infection using 200 nM PMA. Overnight culture of S. aureus or S. typhimurium was grown in RPMI or TSB, respectively, washed twice with PBS and resuspended at 1e7 cfu/ml in PBS. THP-1 were washed with warm media (RMPI without FBS) to remove the Penicillin/Streptomycin and then infected with the bacterial suspension at a multiplicity of infection of 10:1 (S. aureus:macrophages) or 5:1 (S. typhimurium:macrophages). Plates were centrifuged at 300 × g for 5 min to synchronize adhesion of the bacteria to the macrophages, then incubated at 37 °C for 2 h for S. aureus infection or 1 h for S. typhimurium infection. Free-floating bacteria were removed by washing twice with warm media and the remaining extracellular bacteria were killed by addition of media containing gentamicin (50 ug/ml). After 1 h, media was aspirated and the indicated compound was added to the S. aureus-infected macrophages in a dilution series starting at 1e−6 M, with 1:5 dilutions for 6 points (1.0 × 10^−6 M, 2.0 × 10^−7 M, 4.0 × 10^−8 M, 8.0 × 10^−9 M, 1.6 × 10^−9 M, and 3.2 × 10^−10 M) or to the to the S. typhimurium-infected macrophages in a dilution series starting at 1e−4 M, with 1:3 dilutions followed by 1:10 dilutions for 6 points (1.0 × 10^−4 M, 3.0 × 10^−5 M, 1.0 × 10^−5 M, 1.0 × 10^−6 M, 1.0 × 10^−7 M, and 1.0 × 10^−8 M). The compounds were added in media containing 50 µg/ml gentamicin to prevent extracellular growth of bacteria. After 2 h, plates were washed twice with warm RPMI without FBS, and 100 μl of THP-1 lysis buffer (0.1% Triton in PBS) was added to each well. Bacterial survival was enumerated by colony forming units (cfu) through serial dilution and plating onto tryptic soy agar (TSA, Teknova) plates.
# [4] = system: Salmonella typhimurium AR-0031; assay: as above; format: cell-based; conditions: Salmonella typhimurium AR-0031 in THP-1 macrophages, top conc. 1e−4 M
# Procedure: as §1
# [5] = rat, s9
# [6] = system: Caco-2: endogenous transporters; assay: Caco-2 permeability
# CYP 2C19 = CYP 2C19 (Homo sapiens, UniProt P33261)
# CYP 2C8 = CYP 2C8 (Homo sapiens, UniProt P10632); assay: CYP inhibition; conditions: read-out: CYP inhibition IC50; CYP 2C8, substrate Amodiaquine; ND = Not Detected
# [7] = molecular target: T1, MDCK-MDR1: overexpression of Pgp
# CYP 2D6 = CYP 2D6 (Homo sapiens, UniProt P10635); assay: CYP inhibition; conditions: read-out: CYP inhibition IC50; CYP 2D6, substrate Dextromethorphan; ND = Not Detected
# [8] = Compound stability in CYP induction assay
# [9] = S9 microsome stability, CD-1 mouse; conditions: text statement for rodent (mouse and rat) S9
# [10] = system: Caco-2: endogenous transporters
# CYP 3A4 [11] = system: CYP 3A4
# S. aureus NRS384 [12] = assay: S. aureus intracellular killing assay in THP-1 macrophages; format: cell-based; conditions: S. aureus NRS384 in THP-1 macrophages, 2 h, top conc. 1e−6 M
# Procedure: as §1
# CYP 2B6 = CYP 2B6 (Homo sapiens, UniProt P20813)
# CYP 3A4 [13] = molecular target: CYP 3A4 (Homo sapiens, UniProt P08684); conditions: read-out: CYP inhibition IC50, ND = Not Detected
# Sprague Dawley rats = assay: 2-week IV once-a-day toxicity study with 2-week recovery in Sprague Dawley rats
# Procedure: A subset from each dose group was maintained for 14 days after the last dose to evaluate delayed toxicity and/or recovery. All animals were observed twice daily for mortality and signs of pain or distress. Detailed clinical observations, body weight measurements and food consumption were conducted weekly; post dose observations (30 min post dose) were conducted daily or as required. Clinical pathology evaluations (hematology, coagulation parameters, and serum chemistry) were performed using samples collected on the day of scheduled sacrifice (main and recovery). At the end of the 14-day dosing period, and at the end of the 14-day recovery period, necropsies were performed on all animals, selected organs were weighed, and tissues were examined macroscopically and microscopically. Toxicokinetic parameters were evaluated on Day 1 and 14.
# S. aureus NRS384 [14] = assay: S. aureus broth killing (growth inhibition) assay; conditions: S. aureus NRS384, TSB, 24 h, OD600
# Excerpt: as §2
# [15] = combination with vancomycin, end of treatment
# [16] = end of treatment period, compound alone
# [17] = males, combination with vancomycin (1 + 110 mg/kg/day), end of treatment, considered vancomycin-related
# T1 sequence (P08183 whole entry): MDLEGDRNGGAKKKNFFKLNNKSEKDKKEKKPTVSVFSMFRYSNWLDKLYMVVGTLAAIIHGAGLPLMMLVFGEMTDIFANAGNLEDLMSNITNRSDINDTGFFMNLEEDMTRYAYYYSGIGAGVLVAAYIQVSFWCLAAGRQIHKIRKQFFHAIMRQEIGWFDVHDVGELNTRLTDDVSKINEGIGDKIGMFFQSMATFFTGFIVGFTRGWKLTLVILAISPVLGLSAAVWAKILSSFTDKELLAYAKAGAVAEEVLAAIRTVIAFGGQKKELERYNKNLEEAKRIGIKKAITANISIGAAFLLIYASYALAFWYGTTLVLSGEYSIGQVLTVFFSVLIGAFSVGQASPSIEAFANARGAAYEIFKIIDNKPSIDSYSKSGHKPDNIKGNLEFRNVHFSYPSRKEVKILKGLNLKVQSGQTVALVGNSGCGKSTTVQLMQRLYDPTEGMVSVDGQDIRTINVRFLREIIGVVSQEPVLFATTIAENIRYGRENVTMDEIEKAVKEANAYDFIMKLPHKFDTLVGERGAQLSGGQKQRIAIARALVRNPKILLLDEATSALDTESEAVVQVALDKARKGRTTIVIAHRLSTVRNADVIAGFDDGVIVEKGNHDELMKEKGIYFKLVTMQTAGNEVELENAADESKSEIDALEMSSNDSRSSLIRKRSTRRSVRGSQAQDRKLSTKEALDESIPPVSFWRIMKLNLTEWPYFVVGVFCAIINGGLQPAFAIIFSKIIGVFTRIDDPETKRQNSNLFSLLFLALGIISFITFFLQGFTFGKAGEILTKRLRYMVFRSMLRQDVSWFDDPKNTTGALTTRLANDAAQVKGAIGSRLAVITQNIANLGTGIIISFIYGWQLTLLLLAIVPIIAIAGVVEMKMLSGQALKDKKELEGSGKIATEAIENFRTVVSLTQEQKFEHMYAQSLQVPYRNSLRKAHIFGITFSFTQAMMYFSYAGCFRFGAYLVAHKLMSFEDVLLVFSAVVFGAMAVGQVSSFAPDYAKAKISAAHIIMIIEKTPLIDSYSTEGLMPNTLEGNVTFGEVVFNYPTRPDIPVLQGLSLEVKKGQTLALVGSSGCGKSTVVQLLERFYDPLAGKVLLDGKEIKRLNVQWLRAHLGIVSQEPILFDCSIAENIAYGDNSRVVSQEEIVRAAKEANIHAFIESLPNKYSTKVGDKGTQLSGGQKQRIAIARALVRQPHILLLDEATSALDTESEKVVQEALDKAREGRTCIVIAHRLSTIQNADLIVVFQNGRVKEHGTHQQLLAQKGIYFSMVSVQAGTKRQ
# Chain of CYP 3A4 (Homo sapiens, UniProt P08684) (P08684 whole entry): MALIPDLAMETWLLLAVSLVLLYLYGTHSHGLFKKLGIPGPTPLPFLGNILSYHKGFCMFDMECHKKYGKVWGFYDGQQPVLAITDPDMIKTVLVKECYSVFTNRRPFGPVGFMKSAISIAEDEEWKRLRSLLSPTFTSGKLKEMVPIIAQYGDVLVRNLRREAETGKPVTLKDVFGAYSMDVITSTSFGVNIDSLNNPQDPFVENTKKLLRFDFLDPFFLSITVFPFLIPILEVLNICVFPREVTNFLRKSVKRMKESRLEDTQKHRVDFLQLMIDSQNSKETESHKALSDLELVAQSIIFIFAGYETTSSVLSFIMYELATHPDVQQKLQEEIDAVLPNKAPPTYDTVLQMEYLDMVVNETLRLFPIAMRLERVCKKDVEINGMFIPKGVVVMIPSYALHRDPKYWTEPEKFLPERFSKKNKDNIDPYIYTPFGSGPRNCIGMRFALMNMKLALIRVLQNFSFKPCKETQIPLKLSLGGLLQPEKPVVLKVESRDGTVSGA
# Chain of CYP 2C8 (P10632 whole entry): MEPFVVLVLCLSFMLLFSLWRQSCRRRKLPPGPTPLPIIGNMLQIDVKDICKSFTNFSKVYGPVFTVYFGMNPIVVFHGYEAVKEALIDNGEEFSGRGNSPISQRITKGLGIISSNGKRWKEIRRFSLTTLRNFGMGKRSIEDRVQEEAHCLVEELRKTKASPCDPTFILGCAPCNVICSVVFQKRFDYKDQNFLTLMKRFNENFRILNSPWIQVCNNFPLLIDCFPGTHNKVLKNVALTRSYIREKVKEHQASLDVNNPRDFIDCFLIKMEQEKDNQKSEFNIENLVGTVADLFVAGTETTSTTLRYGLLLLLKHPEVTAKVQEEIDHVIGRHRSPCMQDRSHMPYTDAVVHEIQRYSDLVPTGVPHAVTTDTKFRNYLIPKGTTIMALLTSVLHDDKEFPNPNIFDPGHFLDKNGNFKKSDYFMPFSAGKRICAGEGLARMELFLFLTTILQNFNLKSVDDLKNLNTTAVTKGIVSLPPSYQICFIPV
# Chain of CYP 2D6 (P10635 whole entry): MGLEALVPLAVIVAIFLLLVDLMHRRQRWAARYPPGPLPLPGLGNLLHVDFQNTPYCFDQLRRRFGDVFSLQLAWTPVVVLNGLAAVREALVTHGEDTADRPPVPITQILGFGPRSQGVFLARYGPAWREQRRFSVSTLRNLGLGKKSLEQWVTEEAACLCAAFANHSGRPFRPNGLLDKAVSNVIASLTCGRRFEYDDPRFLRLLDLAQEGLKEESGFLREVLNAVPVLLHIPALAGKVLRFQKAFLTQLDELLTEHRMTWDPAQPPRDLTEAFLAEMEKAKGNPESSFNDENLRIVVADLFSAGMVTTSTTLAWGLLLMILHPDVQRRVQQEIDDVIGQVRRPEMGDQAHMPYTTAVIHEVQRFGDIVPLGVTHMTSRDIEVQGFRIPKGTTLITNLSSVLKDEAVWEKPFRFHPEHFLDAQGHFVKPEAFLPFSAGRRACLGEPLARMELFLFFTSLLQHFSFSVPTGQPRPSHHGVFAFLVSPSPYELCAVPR
# Chain of CYP 2B6 (P20813 whole entry): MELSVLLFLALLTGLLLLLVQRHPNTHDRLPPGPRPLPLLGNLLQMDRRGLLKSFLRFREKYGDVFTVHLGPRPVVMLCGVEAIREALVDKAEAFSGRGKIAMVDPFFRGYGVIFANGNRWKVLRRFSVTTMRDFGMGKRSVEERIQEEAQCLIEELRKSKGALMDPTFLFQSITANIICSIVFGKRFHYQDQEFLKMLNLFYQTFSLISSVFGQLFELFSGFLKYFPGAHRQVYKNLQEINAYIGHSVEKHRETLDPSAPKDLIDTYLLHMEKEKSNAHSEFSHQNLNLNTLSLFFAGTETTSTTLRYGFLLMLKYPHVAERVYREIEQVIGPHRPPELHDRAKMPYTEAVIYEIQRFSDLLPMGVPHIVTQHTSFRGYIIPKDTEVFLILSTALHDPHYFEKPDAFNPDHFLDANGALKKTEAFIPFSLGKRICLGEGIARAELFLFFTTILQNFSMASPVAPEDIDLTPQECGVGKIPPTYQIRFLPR
# Chain of CYP 2C19 (P33261 whole entry): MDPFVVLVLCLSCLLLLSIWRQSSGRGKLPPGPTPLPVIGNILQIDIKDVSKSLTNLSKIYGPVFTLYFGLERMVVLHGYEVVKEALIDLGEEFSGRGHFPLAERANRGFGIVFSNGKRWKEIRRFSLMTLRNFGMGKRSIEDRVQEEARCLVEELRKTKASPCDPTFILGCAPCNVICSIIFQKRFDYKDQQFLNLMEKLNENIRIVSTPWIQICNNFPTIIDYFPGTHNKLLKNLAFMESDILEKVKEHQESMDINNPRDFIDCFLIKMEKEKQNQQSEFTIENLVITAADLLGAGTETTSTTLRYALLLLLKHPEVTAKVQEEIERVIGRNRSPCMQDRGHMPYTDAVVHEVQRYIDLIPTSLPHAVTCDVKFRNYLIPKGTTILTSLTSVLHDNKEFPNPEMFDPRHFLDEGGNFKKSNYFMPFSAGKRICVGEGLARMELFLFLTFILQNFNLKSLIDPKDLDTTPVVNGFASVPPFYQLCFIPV
smiles,measurement,setting,value
COC1C=COC2(C)Oc3c(C)c(O)c4c(=O)c(c5oc6cc(OCCN(C)C)ccc6nc-5c4c3C2=O)NC(=O)C(C)=CC=CC(C)C(O)C(C)C(O)C(C)C(OC(C)=O)C1C (centres unmarked) [Compound 4],Mean (B-A/A-B) Efflux Ratio,[1],13.7
same,Broth MIC,[2],1 µM
same,Intracellular MIC,[3],100 µM
same,Intracellular MIC,[4],30 µM
same,T1/2,[5],>2 h
same,Mean (B-A/A-B) Efflux Ratio,[6],3.97
same,IC50,CYP 2C19,9.99 µM
same,IC50,CYP 2C8,6.76 µM
same,Mean A-B % Recovery,[7],89.10%
same,Mean B-A % Recovery,[7],54.80%
same,Mean Papp A-B,[7],1.38 10^−6 cm/s
same,Mean Papp B-A,[7],18.9 10^−6 cm/s
same,IC50,CYP 2D6,11.7 µM
same,Average % Stability,[8],75.8%
same,"half-lives, rodent S9 microsomal stability",[9],greater than 120 min
same,Mean A-B % Recovery,[10],52.70%
same,Mean B-A % Recovery,[10],66.30%
same,Mean Papp A-B,[10],2.59 10^−6 cm/s
same,Mean Papp B-A,[10],10.3 10^−6 cm/s
same,Fold Induction (Enzyme Activity),CYP 3A4 [11],0.128
same,Intracellular MIC,S. aureus NRS384 [12],0.04 µM
same,IC50,CYP 2B6,11.6 µM
same,IC50,"CYP 3A4 [13]; CYP 3A4, substrate Midazolam",8.05 µM
same,IC50,"CYP 3A4 [13]; CYP 3A4, substrate Testosterone",5.66 µM
same,albumin concentration,Sprague Dawley rats; [15],minimal decrease
same,glucose concentration,Sprague Dawley rats; [15],minimal increase
same,urea nitrogen,Sprague Dawley rats; [15],minimal increase
same,dose with apparent minimal increase in alkaline phosphatase in males,Sprague Dawley rats; end of recovery period,≥ 1 mg/kg/day
same,dose with increase in glucose,Sprague Dawley rats; end of recovery period,≥ 0.1 mg/kg/day
same,dose with minimal to mild decreases in globulin in males,Sprague Dawley rats; end of recovery period,≥ 0.1 mg/kg/day
same,dose with minimal increases in phosphorus,Sprague Dawley rats; end of treatment period,≥ 0.1 mg/kg/day
same,dose with minimal increases in reticulocyte counts,Sprague Dawley rats; end of treatment period,≥ 0.1 mg/kg/day
same,dose with minimal decrease in albumin concentration,Sprague Dawley rats; [16],10 mg/kg/day
same,dose with minimal increase in glucose concentration,Sprague Dawley rats; [16],1 mg/kg/day
same,neutrophils counts,Sprague Dawley rats; [17],mild decreases
same,platelet counts,Sprague Dawley rats; [17],minimal increase
same,"red cell mass parameters (red blood cells, hemoglobin, hematocrit)",Sprague Dawley rats; [17],minimal decreases
same,calcium,"Sprague Dawley rats; males, combination with vancomycin, after 14-day recovery",minimal decrease
same,globulin,"Sprague Dawley rats; males, combination with vancomycin, end of recovery period",minimal to mild decreases
same,fibrinogen,"Sprague Dawley rats; males, combination with vancomycin, end of treatment, attributed to vancomycin",minimal increases
same,tolerability,"Sprague Dawley rats; rat, IV QD 14 days, 0.1-10 mg/kg/day",well-tolerated
same,"body weight, body weight gains, food consumption changes","Sprague Dawley rats; rat, IV QD 14 days, alone or in combination with vancomycin","no body weight, body weight gains, or food consumption changes"
same,no-observed-adverse-effect level (NOAEL),"Sprague Dawley rats; rat, IV QD 14 days, highest dose administered",10 mg/kg/day
same,Broth MIC,S. aureus NRS384 [14],0.00391 µM
